{"source": "patent EP0760362B1", "about": "“DIAMINOMETHYLIDENE DERIVATIVE” (NISSHIN SEIFUN GROUP INC., priority 1994, dated 1995)", "tested_on": "longitudinal muscle sample (including myenteric plexus) prepared from the ileum", "assay": "Acetylcholine-release promoting action: contraction of electrically stimulated ileal longitudinal muscle in Magnus' tube", "set-up": "species or system guinea pig", "details": "increase ratio in contraction by electrical stimulation, isometrically recorded", "description": "Acetylcholine-release promoting action of the present compounds in the gastrointestinal tract was investigated according to the following procedure. A longitudinal muscle sample (including myenteric plexus) was prepared from the ileum excised from guinea pig and suspended in Magnus' tube. This sample was perfused in a physiological salt solution and stimulated by the electric current via platinum electrodes. […] This contraction was isometrically recorded. Accordingly, the drug capable of accelerating the release of acetylcholine could enhance the contraction caused by electric stimulation only. Evaluation of the compounds was represented in terms of increase ratio in contraction by electrical stimulation. The tested compounds are shown in terms of the numbers of the corresponding Examples.", "data": [{"compound": "CNC(=C[N+](=O)[O-])NC1CC2COCC(C1)N2Cc1ccc(F)cc1", "note": "(stereo not drawn) [Example 17, N-[endo-9-(p-Fluorobenzyl)-9-aza-3-oxabicyclo[3.3.1]non-7-yl]-N'-methyl-2-nitrovinylidene-1,1-diamine]", "values": [{"measurement": "Contraction increase rate (%)", "setting": "10^-5M", "result": 5.7, "unit": "%"}, {"measurement": "Contraction increase rate (%)", "setting": "10^-7M", "result": 3.2, "unit": "%"}]}, {"compound": "CNC(NC1CC2COCC(C1)N2Cc1ccc(F)cc1)=C(C#N)C#N", "note": "(stereo not drawn) [Example 15, 2-[endo-9-(p-Fluorobenzyl)-9-aza-3-oxabicyclo[3.3.1]non-7-ylamino]-2-methylamino-1,1-ethylenedicarbonitrile]", "values": [{"measurement": "Contraction increase rate (%)", "setting": "10^-7M", "result": 3.9, "unit": "%"}]}, {"compound": "CCOC(=O)C(C#N)=C(NCC1CN(Cc2ccc(F)cc2)CCO1)NC1CCCCC1", "note": "(centres unmarked) [Example 9, Ethyl 3-cyclohexylamino-3-[4-(p-fluorobenzyl)-2-morpholinylmethylamino]-2-cyanoacrylate]", "values": [{"measurement": "Contraction increase rate (%)", "setting": "10^-5M", "result": 31.9, "unit": "%"}, {"measurement": "Contraction increase rate (%)", "setting": "10^-7M", "result": 8.7, "unit": "%"}]}, {"compound": "N#CC(C#N)=C(NCC1CN(Cc2ccc(F)cc2)CCO1)NC1CCCCC1", "note": "(centres unmarked) [Example 2, 2-Cyclohexylamino-2-[4-(p-fluorobenzyl)-2-morpholinylmethylamino]-1,1-ethylenedicarbonitrile]", "values": [{"measurement": "Contraction increase rate (%)", "setting": "10^-5M", "result": 5.3, "unit": "%"}]}, {"compound": "N#CC(C#N)=C(NCc1ccccc1)NCC1CN(Cc2ccc(F)cc2)CCO1", "note": "(centres unmarked) [Example 1, 2-Benzylamino-2-[4-(p-fluorobenzyl)-2-morpholinylmethylamino]-1,1-ethylenedicarbonitrile]", "values": [{"measurement": "Contraction increase rate (%)", "setting": "10^-5M", "result": 12.3, "unit": "%"}, {"measurement": "Contraction increase rate (%)", "setting": "10^-7M", "result": 3.9, "unit": "%"}]}, {"compound": "CCOC(=O)C(C#N)=C(NCC1CN(Cc2ccc(F)cc2)CCO1)Nc1ccc(OC)cc1", "note": "(centres unmarked) [Example 10]", "values": [{"measurement": "Contraction increase rate (%)", "setting": "10^-5M", "result": 11.8, "unit": "%"}, {"measurement": "Contraction increase rate (%)", "setting": "10^-7M", "result": 9.1, "unit": "%"}]}, {"compound": "CCOC(=O)C(C#N)=C(NCCOCCNCc1ccc(F)cc1)NC1CCCCC1", "note": "[Example 12, Ethyl 3-cyclohexylamino-3-[7-(p-fluorophenyl)-6-aza-3-oxaheptylamino]-2-cyanoacrylate]", "values": [{"measurement": "Contraction increase rate (%)", "setting": "10^-5M", "result": 7.9, "unit": "%"}, {"measurement": "Contraction increase rate (%)", "setting": "10^-7M", "result": 0.8, "unit": "%"}]}, {"compound": "CC(C)CNC(NCC1CN(Cc2ccc(F)cc2)CCO1)=C(C#N)C#N", "note": "(centres unmarked) [Example 5, 2-[4-(p-Fluorobenzyl)-2-morpholinylmethylamino]-2-isobutylamino-1,1-ethylenedicarbonitrile]", "values": [{"measurement": "Contraction increase rate (%)", "setting": "10^-5M", "result": 4.9, "unit": "%"}]}, {"compound": "CCOC(=O)C(C#N)=C(NCC1CN(Cc2ccc(F)cc2)CCO1)Nc1ccccc1", "note": "(centres unmarked) [Example 7, Ethyl 3-[4-(p-fluorobenzyl)-2-morpholinylmethylamino]-3-phenylamino-2-cyanoacrylate]", "values": [{"measurement": "Contraction increase rate (%)", "setting": "10^-7M", "result": 0.7, "unit": "%"}]}, {"compound": "N#CC(C#N)=C(NCc1ccc(F)cc1)NCC1CN(Cc2ccc(F)cc2)CCO1", "note": "(centres unmarked) [Example 13, 2-(p-Fluorobenzylamino)-2-[4-(p-fluorobenzyl)-2-morpholinylmethylamino]-1,1-ethylenedicarbonitrile]", "values": [{"measurement": "Contraction increase rate (%)", "setting": "10^-5M", "result": 15.0, "unit": "%"}, {"measurement": "Contraction increase rate (%)", "setting": "10^-7M", "result": 4.9, "unit": "%"}]}, {"compound": "CNC(=O)NCC1CN(Cc2ccc(F)cc2)CCO1", "note": "(centres unmarked) [Example 19, 1-[4-(p-Fluorobenzyl)-2-morpholinylmethyl]-3-methylurea]", "values": [{"measurement": "Contraction increase rate (%)", "setting": "10^-7M", "result": 9.8, "unit": "%"}]}, {"compound": "CCOC(=O)C(C#N)=C(NCC(C)C)NCC1CN(Cc2ccc(F)cc2)CCO1", "note": "(centres unmarked) [Example 8, Ethyl 3-[4-(p-fluorobenzyl)-2-morpholinylmethylamino]-3-isobutylamino-2-cyanoacrylate]", "values": [{"measurement": "Contraction increase rate (%)", "setting": "10^-5M", "result": 32.4, "unit": "%"}, {"measurement": "Contraction increase rate (%)", "setting": "10^-7M", "result": 8.5, "unit": "%"}]}, {"compound": "CNC(=O)NC1CC2COCC(C1)N2Cc1ccc(F)cc1", "note": "(stereo not drawn) [Example 20, 1-[endo-9-(p-Fluorobenzyl)-9-aza-3-oxabicyclo[3.3.1]non-7-yl]-3-methylurea]", "values": [{"measurement": "Contraction increase rate (%)", "setting": "10^-7M", "result": 4.2, "unit": "%"}]}, {"compound": "CCOC(=O)C(C#N)=C(NCc1ccccc1)NCC1CN(Cc2ccc(F)cc2)CCO1", "note": "(centres unmarked) [Example 6, Ethyl 3-benzylamino-3-[4-(p-fluorobenzyl)-2-morpholinylmethylamino]-2-cyanoacrylate]", "values": [{"measurement": "Contraction increase rate (%)", "setting": "10^-5M", "result": 20.3, "unit": "%"}, {"measurement": "Contraction increase rate (%)", "setting": "10^-7M", "result": 3.0, "unit": "%"}]}, {"compound": "CNC(NC1CC2COCC(C1)N2CCCOc1ccc(F)cc1)=C(C#N)C#N", "note": "(stereo not drawn) [Example 16, 2-[endo-9-[3-(p-Fluorophenoxy)propyl]-9-aza-3-oxabicyclo-[3.3.1]non-7-ylamino]-2-methylamino-1,1-ethylenedicarbonitrile]", "values": [{"measurement": "Contraction increase rate (%)", "setting": "10^-7M", "result": 3.1, "unit": "%"}]}]}
